Assay results as given in ChEMBL document CHEMBL1201862, “PubChem BioAssay data set” (2004).
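Following 48 hours of exposure in 96-well plates, responses at five concentrations were used to interpolate endpoints linearly. Abbreviation: GI50, concentration required for 50% inhibition of growth.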 The source made the active and inactive calls. Rule as the data show it: active = GI50 up to about 1.1 µM and inactive = higher.

Columns and labels:
Assay in all cases: DTP human tumour cell line panel, 48 h
SF-539 = test system: SF-539
NCI-H522 = test system: NCI-H522
PC-3 = test system: PC-3
786-0 = test system: 786-0
A498 = test system: A498
MDA-MB-231 = test system: MDA-MB-231
SK-MEL-2 = test system: SK-MEL-2
SN12C = test system: SN12C
M14 = test system: M14
COLO 205 = test system: COLO 205
SR = test system: SR
OVCAR-4 = test system: OVCAR-4
KM12 = test system: KM12
MCF7 = test system: MCF7
CAKI-1 = test system: CAKI-1
K562 = test system: K562
UO-31 = test system: UO-31
OVCAR-3 = test system: OVCAR-3
MOLT-4 = test system: MOLT-4
Hs-578T = test system: Hs-578T
SNB-19 = test system: SNB-19
HT-29 = test system: HT-29
HOP-62 = test system: HOP-62
MDA-N = test system: MDA-N
UACC-62 = test system: UACC-62
HL-60 = test system: HL-60
BT-549 = test system: BT-549
OVCAR-5 = test system: OVCAR-5
SF-268 = test system: SF-268
EKVX = test system: EKVX
SK-OV-3 = test system: SK-OV-3
HCT-116 = test system: HCT-116
HOP-92 = test system: HOP-92
ACHN = test system: ACHN
SNB-75 = test system: SNB-75
U-251 = test system: U-251
CCRF-CEM = test system: CCRF-CEM
MDA-MB-435 = test system: MDA-MB-435
IGROV-1 = test system: IGROV-1
SF-295 = test system: SF-295
RXF 393 = test system: RXF 393
LOX IMVI = test system: LOX IMVI
SK-MEL-28 = test system: SK-MEL-28
OVCAR-8 = test system: OVCAR-8
Malme-3M = test system: Malme-3M
DU-145 = test system: DU-145
A549 = test system: A549
HCT-15 = test system: HCT-15
NCI/ADR-RES = test system: NCI/ADR-RES
T47D = test system: T47D
HCC 2998 = test system: HCC 2998
SW-620 = test system: SW-620
UACC-257 = test system: UACC-257
SK-MEL-5 = test system: SK-MEL-5
NCI-H460 = test system: NCI-H460
NCI-H23 = test system: NCI-H23
RPMI-8226 = test system: RPMI-8226
TK-10 = test system: TK-10

CCOP(=O)(OCC)/C(F)=C/c1ccc(F)cc1
GI50 (SF-539): > 100 µM (inactive) | GI50 (NCI-H522): > 100 µM (inactive) | GI50 (PC-3): > 100 µM (inactive) | GI50 (786-0): > 100 µM (inactive) | GI50 (A498): > 100 µM (inactive) | GI50 (MDA-MB-231): > 100 µM (inactive) | GI50 (SK-MEL-2): > 100 µM (inactive) | GI50 (SN12C): > 100 µM (inactive) | GI50 (M14): > 100 µM (inactive) | GI50 (COLO 205): > 100 µM (inactive) | GI50 (SR): > 100 µM (inactive) | GI50 (OVCAR-4): > 100 µM (inactive) | GI50 (KM12): > 100 µM (inactive) | GI50 (MCF7): > 100 µM (inactive) | GI50 (CAKI-1): > 100 µM (inactive) | GI50 (K562): > 100 µM (inactive) | GI50 (UO-31): > 100 µM (inactive) | GI50 (OVCAR-3): > 100 µM (inactive) | GI50 (MOLT-4): > 100 µM (inactive) | GI50 (Hs-578T): > 100 µM (inactive) | GI50 (SNB-19): > 100 µM (inactive) | GI50 (HT-29): > 100 µM (inactive) | GI50 (HOP-62): > 100 µM (inactive) | GI50 (MDA-N): > 100 µM (inactive) | GI50 (UACC-62): 91.2 µM (inactive) | GI50 (HL-60): > 100 µM (inactive) | GI50 (BT-549): > 100 µM (inactive) | GI50 (OVCAR-5): > 100 µM (inactive) | GI50 (SF-268): > 100 µM (inactive) | GI50 (EKVX): > 100 µM (inactive) | GI50 (SK-OV-3): > 100 µM (inactive) | GI50 (HCT-116): > 100 µM (inactive) | GI50 (HOP-92): > 100 µM (inactive) | GI50 (ACHN): > 100 µM (inactive) | GI50 (SNB-75): > 100 µM (inactive) | GI50 (U-251): > 100 µM (inactive) | GI50 (CCRF-CEM): > 100 µM (inactive) | GI50 (MDA-MB-435): > 100 µM (inactive) | GI50 (IGROV-1): > 100 µM (inactive) | GI50 (SF-295): > 100 µM (inactive) | GI50 (RXF 393): > 100 µM (inactive) | GI50 (LOX IMVI): > 100 µM (inactive) | GI50 (SK-MEL-28): > 100 µM (inactive) | GI50 (OVCAR-8): > 100 µM (inactive) | GI50 (Malme-3M): > 100 µM (inactive) | GI50 (DU-145): > 100 µM (inactive) | GI50 (A549): > 100 µM (inactive) | GI50 (HCT-15): > 100 µM | GI50 (NCI/ADR-RES): > 100 µM (inactive) | GI50 (T47D): > 100 µM (inactive) | GI50 (HCC 2998): > 10 µM (inactive) | GI50 (SW-620): > 100 µM (inactive) | GI50 (UACC-257): > 100 µM (inactive) | GI50 (SK-MEL-5): > 100 µM (inactive) | GI50 (NCI-H460): > 100 µM (inactive) | GI50 (NCI-H23): > 100 µM (inactive) | GI50 (RPMI-8226): > 100 µM (inactive) | GI50 (TK-10): > 100 µM (inactive)
